# Measurements from paper PMC7016641, “The Role of Transient Receptor Potential Melastatin 7 (TRPM7) in Cell Viability: A Potential Target to Suppress Breast Cancer Cell Cycle” (Cancers, 2020).
# Target: T1, TRPM7 (transient receptor potential melastatin 7) (Mus musculus, UniProt Q923J1)
# T1 construct: murine TRPM7 (GenBank AF376052) overexpressed in HEK293 (HEK-M7)
# Test: whole-cell patch clamp at +[…] mV; Fura-2 Mn2+ quench gave IC50 […]
# Assay type: cell-based
# T1 sequence (Q923J1 whole entry): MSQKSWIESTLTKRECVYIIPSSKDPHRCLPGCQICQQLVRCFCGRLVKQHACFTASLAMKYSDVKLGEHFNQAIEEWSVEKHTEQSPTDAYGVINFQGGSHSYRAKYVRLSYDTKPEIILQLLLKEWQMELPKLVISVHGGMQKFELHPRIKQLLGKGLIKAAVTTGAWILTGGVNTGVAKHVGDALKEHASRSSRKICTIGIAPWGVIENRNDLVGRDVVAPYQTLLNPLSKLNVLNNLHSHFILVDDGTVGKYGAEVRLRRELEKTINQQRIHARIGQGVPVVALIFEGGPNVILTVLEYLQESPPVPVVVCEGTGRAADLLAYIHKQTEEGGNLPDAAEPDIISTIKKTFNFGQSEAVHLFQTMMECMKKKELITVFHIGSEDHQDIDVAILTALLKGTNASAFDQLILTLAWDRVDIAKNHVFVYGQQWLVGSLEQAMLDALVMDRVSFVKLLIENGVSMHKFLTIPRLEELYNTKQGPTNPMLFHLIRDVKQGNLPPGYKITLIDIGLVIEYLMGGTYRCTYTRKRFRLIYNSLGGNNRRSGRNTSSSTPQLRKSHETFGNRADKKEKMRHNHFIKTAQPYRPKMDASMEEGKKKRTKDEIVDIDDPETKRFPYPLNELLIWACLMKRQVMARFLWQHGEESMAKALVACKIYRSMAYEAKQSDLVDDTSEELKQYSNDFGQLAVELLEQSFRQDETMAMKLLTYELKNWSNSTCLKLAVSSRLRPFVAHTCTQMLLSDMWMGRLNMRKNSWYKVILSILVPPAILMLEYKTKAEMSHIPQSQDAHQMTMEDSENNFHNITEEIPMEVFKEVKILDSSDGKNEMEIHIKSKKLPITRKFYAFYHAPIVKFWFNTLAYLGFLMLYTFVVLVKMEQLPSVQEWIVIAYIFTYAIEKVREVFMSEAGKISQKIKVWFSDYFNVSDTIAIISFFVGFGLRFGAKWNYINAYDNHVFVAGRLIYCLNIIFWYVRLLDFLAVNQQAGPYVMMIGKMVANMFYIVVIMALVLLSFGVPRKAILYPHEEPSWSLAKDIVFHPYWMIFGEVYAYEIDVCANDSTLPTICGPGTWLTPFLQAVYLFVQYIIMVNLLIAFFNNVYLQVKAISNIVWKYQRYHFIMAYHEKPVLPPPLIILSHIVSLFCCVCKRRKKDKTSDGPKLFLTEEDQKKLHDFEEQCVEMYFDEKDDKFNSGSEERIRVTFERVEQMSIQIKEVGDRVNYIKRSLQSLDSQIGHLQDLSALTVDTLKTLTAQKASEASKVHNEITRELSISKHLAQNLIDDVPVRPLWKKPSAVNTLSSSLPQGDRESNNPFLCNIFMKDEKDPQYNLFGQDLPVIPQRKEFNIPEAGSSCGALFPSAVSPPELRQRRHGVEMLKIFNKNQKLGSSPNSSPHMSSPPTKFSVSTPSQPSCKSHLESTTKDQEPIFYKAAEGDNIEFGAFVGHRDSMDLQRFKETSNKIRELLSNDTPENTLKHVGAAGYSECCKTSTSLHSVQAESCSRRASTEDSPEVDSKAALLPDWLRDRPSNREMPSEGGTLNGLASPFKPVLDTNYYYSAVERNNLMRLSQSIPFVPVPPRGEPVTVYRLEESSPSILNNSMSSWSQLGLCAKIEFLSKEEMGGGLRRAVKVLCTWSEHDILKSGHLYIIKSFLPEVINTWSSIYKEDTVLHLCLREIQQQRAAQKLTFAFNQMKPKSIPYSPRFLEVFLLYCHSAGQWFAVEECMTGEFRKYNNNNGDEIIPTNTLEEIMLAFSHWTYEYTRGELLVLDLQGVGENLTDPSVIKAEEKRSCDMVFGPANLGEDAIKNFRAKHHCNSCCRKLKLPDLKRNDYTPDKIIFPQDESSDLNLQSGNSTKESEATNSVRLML
structure (smiles),measurement,value
"NCCOB(c1ccccc1)c1ccccc1 [2-APB, 2-aminoethyl diphenylborinate]",IC50,120 ± 16 µM
